Measurements from the supplement of paper PMC10627819.

How the values were obtained:
[1] = test system: S. aureus DSM 20231; assay: Bliss interaction score (quartile over a dose matrix) (fitness difference); higher = more antagonism (negative = synergy)
Method in brief: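 Fitness was OD595 at entry into stationary phase divided by the plate's robust no-drug mean and capped at 1; single-drug fitness was inferred from combination data. The Bliss score is observed minus expected (product) fitness, summarised by quartiles over technical, biological and donor/recipient replicates.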

[2] = test system: S. aureus Newman; assay: fitness (endpoint OD595 vs no drug) (fraction); higher = more growth
Method in brief: (§1)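 Volumes were 30 µl per well, or 55 µl for S. pneumoniae, in 384-well plates inoculated at OD595 0.01. Media were TSB, LB Lennox or CY at 37 °C, and OD595 was read every 30 min for 14 h with first-reading background subtraction. Fitness is the ratio of optical density at stationary-phase entry to the robust mean of no-drug controls. That ratio is capped at 1.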

[3] = test system: B. subtilis 168; assay: as above
Method in brief: as §1

[4] = test system: S. aureus DSM 20231; assay: as above
Method in brief: as §1

[5] = first compound 0.078 µg/mL, partner 0.375 µg/mL
[6] = first compound 0.078 µg/mL, partner 0.75 µg/mL
[7] = first compound 0.078 µg/mL, partner 1.5 µg/mL
[8] = first compound 0.156 µg/mL, partner 0.375 µg/mL
[9] = first compound 0.156 µg/mL, partner 0.75 µg/mL
[10] = first compound 0.156 µg/mL, partner 1.5 µg/mL
[11] = first compound 0.312 µg/mL, partner 0.375 µg/mL
[12] = first compound 0.312 µg/mL, partner 0.75 µg/mL
[13] = first compound 0.312 µg/mL, partner 1.5 µg/mL
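Throughout, for Bliss interaction score (quartile over a dose matrix): first quartile when negative (synergy) and third quartile when positive (antagonism).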

SMILES: CC(=O)Oc1cccc2c1C(=O)c1c(OC(C)=O)cc(C(=O)O)cc1C2=O [Diacerein] + C[C@H]1COc2c(N3CCN(C)CC3)c(F)cc3c(=O)c(C(=O)O)cn1c23 [Levofloxacin]
- Bliss interaction score [1]: -0.237

SMILES: CC(=O)Oc1cccc2c1C(=O)c1c(OC(C)=O)cc(C(=O)O)cc1C2=O [Diacerein] + COc1cc(Cc2cnc(N)nc2N)cc(OC)c1OC [Trimethoprim]
- Bliss interaction score [1]: -0.243

SMILES: C[C@H]1c2cccc(O)c2C(=O)C2=C(O)[C@]3(O)C(=O)C(C(N)=O)=C(O)[C@@H](N(C)C)[C@@H]3[C@@H](O)[C@@H]21 [Doxycycline] + CC(=O)S[C@@H]1CC2=CC(=O)CC[C@]2(C)[C@H]2CC[C@@]3(C)[C@@H](CC[C@@]34CCC(=O)O4)[C@H]12 [Spironolactone]
- Bliss interaction score [1]: 0.239

SMILES: Cn1c(=O)c2c(ncn2C)n(C)c1=O [Caffeine] + CCC[C@@H]1C[C@@H](C(=O)N[C@@H]([C@H]2O[C@H](SC)[C@H](O)[C@@H](O)[C@H]2O)[C@@H](C)O)N(C)C1 [Lincomycin]
- Bliss interaction score [1]: -0.292

SMILES: CC(=O)Oc1ccccc1C(=O)O [Acetylsalicylicacid] + CC(C)c1c(C(=O)Nc2ccccc2)c(-c2ccccc2)c(-c2ccc(F)cc2)n1CC[C@@H](O)C[C@@H](O)CC(=O)O [Atorvastatin]
- Bliss interaction score [1]: 0.213

SMILES: CC(=O)Oc1ccccc1C(=O)O [Acetylsalicylicacid] + CC[C@H](c1ccc(O)cc1)[C@@H](CC)c1ccc(O)cc1 [Hexestrol]
- Bliss interaction score [1]: -0.455

SMILES: COCCOC(=O)C1=C(C)NC(C)=C(C(=O)OC/C=C/c2ccccc2)C1c1cccc([N+](=O)[O-])c1 (centres undefined) [Cilnidipine] + CCC(C)C1C(=O)NC(=C)C(=O)NC(C(=O)NC(CSCC(C(=O)N1)NC(=O)/C(=C/C)/NC(=O)C(C(C)CC)N)C(=O)NC2C(SCC(NC(=O)CNC(=O)C3CCCN3C2=O)C(=O)NC(CCCCN)C(=O)NC4C(SCC(NC(=O)CNC(=O)C(NC(=O)C(NC(=O)C(NC(=O)CNC4=O)C)CC(C)C)CCSC)C(=O)NC(CC(=O)N)C(=O)NC(CCSC)C(=O)NC(CCCCN)C(=O)NC5C(SCC6C(=O)NC(C(=O)NC(CSC(C(C(=O)N6)NC(=O)C(NC5=O)C)C)C(=O)NC(CO)C(=O)NC(C(C)CC)C(=O)NC(CC7=CN=CN7)C(=O)NC(C(C)C)C(=O)NC(=C)C(=O)NC(CCCCN)C(=O)O)CC8=CN=CN8)C)C)C)CC(C)C [Nisin]
- Bliss interaction score ([1]; main component drawn): 0.156

SMILES: CC(=O)Oc1ccccc1C(=O)O [Acetylsalicylicacid] + CN(Cc1cnc2nc(N)nc(N)c2n1)c1ccc(C(=O)N[C@@H](CCC(=O)O)C(=O)O)cc1 [Methotrexate]
- Bliss interaction score [1]: -0.416

SMILES: COCCOC(=O)C1=C(C)NC(C)=C(C(=O)OC/C=C/c2ccccc2)C1c1cccc([N+](=O)[O-])c1 (centres undefined) [Cilnidipine] + CN(C)C(=O)C(CCN1CCC(O)(c2ccc(Cl)cc2)CC1)(c1ccccc1)c1ccccc1 [Loperamide]
- Bliss interaction score [1]: -0.32

SMILES: COCCOC(=O)C1=C(C)NC(C)=C(C(=O)OC/C=C/c2ccccc2)C1c1cccc([N+](=O)[O-])c1 (centres undefined) [Cilnidipine] + Cn1nnc(-c2ccc(-c3ccc(N4C[C@H](CO)OC4=O)cc3F)cn2)n1 [Tedizolid]
- Bliss interaction score [1]: -0.429

SMILES: CN(C)[C@@H]1C(O)=C(C(N)=O)C(=O)[C@@]2(O)C(O)=C3C(=O)c4c(O)ccc(Cl)c4[C@@](C)(O)[C@H]3C[C@@H]12 [Clortetracycline] + CCCc1nc2c(C)cc(-c3nc4ccccc4n3C)cc2n1Cc1ccc(-c2ccccc2C(=O)O)cc1 [Telmisartan]
- Bliss interaction score [1]: -0.261

SMILES: O=C(O)c1cc(-c2ccc(F)cc2F)ccc1O [Diflunisal] + CN(C)C(=O)C(CCN1CCC(O)(c2ccc(Cl)cc2)CC1)(c1ccccc1)c1ccccc1 [Loperamide]
- Bliss interaction score [1]: 0.356

SMILES: CC(=O)Oc1ccccc1C(=O)O [Acetylsalicylicacid] + CCN(CC)C(=O)/C(C#N)=C/c1cc(O)c(O)c([N+](=O)[O-])c1 [Entacapone]
- Bliss interaction score [1]: 0.143

SMILES: CO/N=C(\C(=O)N[C@@H]1C(=O)N2C(C(=O)O)=C(COC(C)=O)CS[C@H]12)c1csc(N)n1 [Cefotaxime] + N[C@@H]1CONC1=O [Cycloserine D]
- fitness [2, 5]: 0.736
- fitness [2, 6]: 0.828
- fitness [2, 7]: 0.785
- fitness [2, 8]: 0.601
- fitness [2, 9]: 0.604
- fitness [2, 10]: 0.629
- fitness [2, 11]: 0.345
- fitness [2, 12]: 0.326
- fitness [2, 13]: 0.305
- fitness ([2]; first compound 0.625 µg/mL, partner 0.375 µg/mL): 0.186
- fitness ([2]; first compound 0.625 µg/mL, partner 0.75 µg/mL): 0.121
- fitness ([2]; first compound 0.625 µg/mL, partner 1.5 µg/mL): 0.0813
- fitness ([2]; first compound 1.25 µg/mL, partner 0.375 µg/mL): 0.0332
- fitness ([2]; first compound 1.25 µg/mL, partner 0.75 µg/mL): 0.0383
- fitness ([2]; first compound 1.25 µg/mL, partner 1.5 µg/mL): 0.0209
- fitness ([2]; first compound 2.5 µg/mL, partner 0.375 µg/mL): 0.0595
- fitness ([2]; first compound 2.5 µg/mL, partner 0.75 µg/mL): 0.0506
- fitness ([2]; first compound 2.5 µg/mL, partner 1.5 µg/mL): 0.0484
- fitness ([3]; first compound 0.00775 µg/mL, partner 0.125 µg/mL, one replicate): 0.876
- fitness ([3]; first compound 0.00775 µg/mL, partner 0.25 µg/mL, one replicate): 0.888
- fitness ([3]; first compound 0.00775 µg/mL, partner 0.5 µg/mL, one replicate): 0.802
- fitness ([3]; first compound 0.0155 µg/mL, partner 0.125 µg/mL, one replicate): 0.666
- fitness ([3]; first compound 0.0155 µg/mL, partner 0.25 µg/mL, one replicate): 0.756
- fitness ([3]; first compound 0.0155 µg/mL, partner 0.5 µg/mL, one replicate): 0.733
- fitness ([3]; first compound 0.031 µg/mL, partner 0.125 µg/mL, one replicate): 0.554
- fitness ([3]; first compound 0.031 µg/mL, partner 0.25 µg/mL, one replicate): 0.561
- fitness ([3]; first compound 0.031 µg/mL, partner 0.5 µg/mL, one replicate): 0.566
- fitness ([3]; first compound 0.0625 µg/mL, partner 0.125 µg/mL, one replicate): 0.498
- fitness ([3]; first compound 0.0625 µg/mL, partner 0.25 µg/mL, one replicate): 0.524
- fitness ([3]; first compound 0.0625 µg/mL, partner 0.5 µg/mL, one replicate): 0.477
- fitness ([3]; first compound 0.125 µg/mL, partner 0.125 µg/mL, one replicate): 0.353
- fitness ([3]; first compound 0.125 µg/mL, partner 0.25 µg/mL, one replicate): 0.401
- fitness ([3]; first compound 0.125 µg/mL, partner 0.5 µg/mL, one replicate): 0.363
- fitness ([3]; first compound 0.25 µg/mL, partner 0.125 µg/mL, one replicate): 0.296
- fitness ([3]; first compound 0.25 µg/mL, partner 0.25 µg/mL, one replicate): 0.31
- fitness ([3]; first compound 0.25 µg/mL, partner 0.5 µg/mL, one replicate): 0.267
- fitness ([3]; first compound 0.5 µg/mL, partner 0.125 µg/mL): 0.333
- fitness ([3]; first compound 0.5 µg/mL, partner 0.25 µg/mL): 0.28
- fitness ([3]; first compound 1 µg/mL, partner 0.125 µg/mL): 0.162
- fitness ([3]; first compound 1 µg/mL, partner 0.25 µg/mL): 0.169
- fitness ([3]; first compound 1 µg/mL, partner 0.5 µg/mL): 0.162
- fitness ([3]; first compound 2 µg/mL, partner 0.125 µg/mL): 0.16
- fitness ([3]; first compound 2 µg/mL, partner 0.25 µg/mL): 0.182
- fitness ([3]; first compound 2 µg/mL, partner 0.5 µg/mL): 0.15
- fitness ([4]; first compound 0.039 µg/mL, partner 0.375 µg/mL): 0.822
- fitness ([4]; first compound 0.039 µg/mL, partner 0.75 µg/mL): 0.822
- fitness ([4]; first compound 0.039 µg/mL, partner 1.5 µg/mL): 0.835
- fitness [4, 5]: 0.789
- fitness [4, 6]: 0.853
- fitness [4, 7]: 0.748
- fitness [4, 8]: 0.736
- fitness [4, 9]: 0.772
- fitness [4, 10]: 0.696
- fitness [4, 11]: 0.652
- fitness [4, 12]: 0.638
- fitness [4, 13]: 0.584
